Assay: Stability test: storage in nitrogen-filled sealed bottles, purity test by HPLC every month
Assay type: physicochemical
Conditions: for purity by HPLC, Time (month) 1: 1 month; for purity by HPLC, Time (month) 2: 2 months; for purity by HPLC, Time (month) 3: 3 months; for purity by HPLC, Time (month) 4: 4 months; for purity by HPLC, Time (month) 5: 5 months; for purity by HPLC, Time (month) 6: 6 months; for Decomposition rate: over 6 months; for purity by HPLC, Time (month) 0: initial sample (0 month); for stability, molar ratio (NR to organic acid) 1:2 compared with 1:1: in words, comparison with the corresponding 1:1 product
Experimental: I. Preparation of samples
1. The products of Examples 1 to 4, Examples 10 to 13, and the comparative example were each dispensed into 13 bottles, each of 50 mg; and the bottles were filled with nitrogen and sealed. One of the bottles (initial sample) was first tested, and the remaining 12 bottles were divided into two groups (each with 6 bottles) and stored. The bottles in each group were numbered 1 to 6 according to a test sequence. The two groups of bottles were stored at 2° C. to 8° C. and −20° C., respectively; and one sample was tested every month.
2. The products of Examples 6 to 9 and Example 14 were each dispensed into 7 bottles, each of 50 mg; and the bottles were filled with nitrogen and sealed. One of the bottles (initial sample) was first tested, and the remaining 6 bottles were numbered 1 to 6 according to a test sequence and then stored at 2° C. to 8° C. One sample was tested every month.
II. Preparation of test sample solutions
One bottle of sample was taken at a time and prepared into a 5 mL or 10 mL solution using a 5 mL or 10 mL volumetric flask, and then the solution was filtered through a membrane to be ready for purity test by HPLC.
Mobile phase: isocratic elution: 5% water (0.1% formic acid)+95% methanol (0.1% formic acid)
Temperature and humidity: 23.0° C. and 54% RH
Sample dissolution: dissolution by methanol
Chromatographic column: ODS-2, 4.6 * 250 mm, 5 μm, and constant pressure: 12 Mpa to 13 Mpa
Running time: ≥15 min IV.

[1] = Table 2, stored at 2° C. to 8° C.

Row | SMILES | purity by HPLC, Time (month) 1 (Table 1, stored at −20° C.) | purity by HPLC, Time (month) 2 (Table 1, stored at −20° C.) | purity by HPLC, Time (month) 3 (Table 1, stored at −20° C.) | purity by HPLC, Time (month) 4 (Table 1, stored at −20° C.) | purity by HPLC, Time (month) 5 (Table 1, stored at −20° C.) | purity by HPLC, Time (month) 6 (Table 1, stored at −20° C.) | Decomposition rate (Table 1, stored at −20° C.) | purity by HPLC, Time (month) 0 (Table 1, −20° C.) | purity by HPLC, Time (month) 0 (Table 2, 2° C. to 8° C.) | purity by HPLC, Time (month) 1 [1] | purity by HPLC, Time (month) 2 [1] | purity by HPLC, Time (month) 3 [1] | purity by HPLC, Time (month) 4 [1] | purity by HPLC, Time (month) 5 [1] | purity by HPLC, Time (month) 6 [1] | Decomposition rate [1] | stability, molar ratio (NR to organic acid) 1:2 compared with 1:1
1 | NC(=O)c1ccc[n+]([C@@H]2O[C@H](CO)[C@@H](O)[C@H]2O)c1.[Cl-] [Comparative Example, chlorine salt of NR, reference compound] | 98.284 | 98.087 | 97.701 | 97.449 | 97.575 | 97.210 | 1.33% | 98.525 | 98.525 | 98.171 | 98.206 | 97.540 | 97.612 | 97.384 | 97.109 | 1.44% | –
2 | NC(=O)c1ccc[n+]([C@@H]2O[C@H](CO)[C@@H](O)[C@H]2O)c1.O=C(O)CC(O)(CC(=O)O)C(=O)[O-] [Example 1, citrate of NR (1:1)] | 98.828 | 98.450 | 98.190 | 98.252 | 97.978 | 97.814 | 1.13% | 98.930 | 98.930 | 98.198 | 98.409 | 98.171 | 97.957 | 97.823 | 97.670 | 1.27% | –
3 | NC(=O)c1ccc[n+]([C@@H]2O[C@H](CO)[C@@H](O)[C@H]2O)c1.O=C(O)CC(O)(CC(=O)O)C(=O)O.O=C(O)CC(O)(CC(=O)O)C(=O)[O-] [Example 2, citrate of NR (1:2)] | 98.317 | 98.079 | 98.168 | 97.933 | 97.806 | 97.788 | 0.69% | 98.471 | 98.471 | 98.492 | 98.240 | 98.097 | 97.626 | 97.704 | 97.498 | 0.99% | higher stability
4 | NC(=O)c1ccc[n+]([C@@H]2O[C@H](CO)[C@@H](O)[C@H]2O)c1.O=C([O-])C[C@H](O)C(=O)O [Example 3, malate of NR (1:1)] | 98.691 | 98.310 | 98.288 | 98.076 | 97.912 | 97.645 | 0.94% | 98.573 | 98.573 | 98.482 | 98.185 | 98.270 | 97.946 | 97.592 | 97.337 | 1.25% | –
5 | NC(=O)c1ccc[n+]([C@@H]2O[C@H](CO)[C@@H](O)[C@H]2O)c1.O=C(O)C[C@H](O)C(=O)O.O=C([O-])C[C@H](O)C(=O)O [Example 4, malate of NR (1:2)] | 98.547 | 98.629 | 98.316 | 98.207 | 98.081 | 98.100 | 0.73% | 98.818 | 98.818 | 98.424 | 98.360 | 98.298 | 98.239 | 97.707 | 97.816 | 1.01% | higher stability

— patent publication US11505570B2, “Organic acid salt of nicotinamide riboside, composition including organic acid salt, and preparation methods of organic acid salt and composition” (SHENZHEN DIECKMANN TECH CO., LTD, priority 2020, dated 2022)
